Reference: patent publication US8362000B2, “Azetidinyl diamides as monoacylglycerol lipase inhibitors” (Janssen Pharmaceutica NV, priority 2009, dated 2013)

Each compound was assayed against T1, MGL (Rattus norvegicus, UniProt Q8R431) (assay: 2-AG accumulation assay in rat brain homogenate). Conditions: rat brain homogenate; compound 0.01 μM; 2-AG accumulation as percent of vehicle; read-out: Rat Brain 2AG % VehCntrl (%) @ 0.01 μM.
T1 construct: one g rat brain was homogenized using a Polytron homogenizer; from tissue; host or cells: rat brain homogenate
T1 sequence (Q8R431 1-303): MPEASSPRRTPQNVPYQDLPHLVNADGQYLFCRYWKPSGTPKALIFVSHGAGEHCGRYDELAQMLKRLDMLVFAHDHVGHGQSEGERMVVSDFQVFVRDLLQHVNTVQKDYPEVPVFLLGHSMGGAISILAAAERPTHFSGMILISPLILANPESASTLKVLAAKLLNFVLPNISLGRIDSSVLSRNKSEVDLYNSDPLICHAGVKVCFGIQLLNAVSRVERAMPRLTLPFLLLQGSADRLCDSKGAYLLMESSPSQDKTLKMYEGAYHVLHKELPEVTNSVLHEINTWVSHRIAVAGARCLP
Assay type: biochemical

Row | 2-AG accumulation, % of vehicle control at 0.01 µM [%] | Structure (SMILES)
1 | 123 | O=C(c1ccccc1)N1CCN(C2CN(C(=O)c3ccc(-c4cccc(C(F)(F)F)c4)cc3)C2)CC1 [Cpd 186, 1-(Phenylcarbonyl)-4-(1-{[3′-(trifluoromethyl)biphenyl-4-yl]carbonyl}azetidin-3-yl)piperazine]

Same assay, conditions: rat brain homogenate; compound 0.1 μM; 2-AG accumulation as percent of vehicle; read-out: Rat Brain 2AG % VehCntrl (%) @ 0.1 μM

Row | 2-AG accumulation, % of vehicle control at 0.1 µM [%] | Structure (SMILES)
2 | 199 | O=C(c1ccccc1)N1CCN(C2CN(C(=O)c3ccc(-c4cccc(C(F)(F)F)c4)cc3)C2)CC1 [Cpd 186, 1-(Phenylcarbonyl)-4-(1-{[3′-(trifluoromethyl)biphenyl-4-yl]carbonyl}azetidin-3-yl)piperazine]

Same assay, conditions: rat brain homogenate; compound 1 μM; 2-AG accumulation as percent of vehicle

Row | Rat Brain 2AG % VehCntrl (%) @ 1 μM [%] | Structure (SMILES)
3 | 284 | Cc1c(C(=O)N2CC(N3CCN(C(=O)c4ccns4)CC3)C2)sc2cc(C(F)(F)F)ccc12 [Cpd 692]

Same assay, conditions: rat brain homogenate; compound 1 μM; 2-AG accumulation as percent of vehicle; read-out: Rat Brain 2AG % VehCntrl (%) @ 1 μM

Row | 2-AG accumulation, % of vehicle control at 1 µM [%] | Structure (SMILES)
4 | 159 | O=C(c1ccccc1)N1CCN(C2CN(C(=O)c3ccc(S(=O)(=O)c4cccc(Cl)c4)cc3)C2)CC1 [Cpd 433, 1-[1-({4-[(3-Chlorophenyl)sulfonyl]phenyl}carbonyl)azetidin-3-yl]-4-(phenylcarbonyl)piperazine]
5 | 260 | O=C(c1ccccc1)N1CCN(C2CN(C(=O)c3ccc(-c4cccc(C(F)(F)F)c4)cc3)C2)CC1 [Cpd 186, 1-(Phenylcarbonyl)-4-(1-{[3′-(trifluoromethyl)biphenyl-4-yl]carbonyl}azetidin-3-yl)piperazine]
6 | 265 | O=C(c1ccccc1)N1CCN(C2CN(C(=O)c3ccc4c(ccn4-c4ccc(F)cc4F)c3)C2)CC1 [Cpd 579, 1-(2,4-Difluorophenyl)-5-({3-[4-(phenylcarbonyl)piperazin-1-yl]azetidin-1-yl}carbonyl)-1H-indole]

The remaining lines, values behind:

Row | Structure (SMILES) | 2-AG accumulation, % of vehicle control at 1 µM [%]
7 | O=C(c1ccc2nc(-c3cccc(C(F)(F)F)c3)oc2c1)N1CC(N2CCN(C(=O)c3cscn3)CC2)C1 [Cpd 1151, 6-({3-[4-(1,3-Thiazol-4-ylcarbonyl)piperazin-1-yl]azetidin-1-yl}carbonyl)-2-[3-(trifluoromethyl)phenyl]-1,3-benzoxazole] | 482
8 | O=C(c1ccccc1)N1CCN(C2CN(C(=O)c3sc4cc(C(F)(F)F)ccc4c3Cl)C2)CC1 [Cpd 336] | 223
9 | O=C(c1ccc2c(c1)ncn2-c1ccc(C(F)(F)F)cc1)N1CC(N2CCN(C(=O)c3nccs3)CC2)C1 [Cpd 1064, 5-({3-[4-(1,3-Thiazol-2-ylcarbonyl)piperazin-1-yl]azetidin-1-yl}carbonyl)-1-[4-(trifluoromethyl)phenyl]-1H-benzimidazole] | 570
10 | NC(=O)c1ccc(-n2ccc3cc(C(=O)N4CC(N5CCN(C(=O)c6nccs6)CC5)C4)ccc32)cc1 [Cpd 1171] | 839
11 | O=C(c1ccc2c(c1)CCN(S(=O)(=O)c1ccccc1)C2)N1CC(N2CCN(C(=O)c3nccs3)CC2)C1 [Cpd 927] | 850
12 | O=C(c1ccc2c(c1)ncn2-c1ccc(F)c(F)c1)N1CC(N2CCN(C(=O)c3nccs3)CC2)C1 [Cpd 1186] | 393

Same assay, conditions: rat brain homogenate; compound 10 μM; 2-AG accumulation as percent of vehicle; read-out: Rat Brain 2AG % VehCntrl (%) @ 10 μM

Row | 2-AG accumulation, % of vehicle control at 10 µM [%] | Structure (SMILES)
13 | 773 | O=C(c1ccccc1)N1CCN(C2CN(C(=O)c3ccc(OCc4ccc5ccccc5c4)cc3)C2)CC1 [Cpd 380, 1-(1-{[4-(Naphthalen-2-ylmethoxy)phenyl]carbonyl}azetidin-3-yl)-4-(phenylcarbonyl)piperazine]
14 | 365 | O=C(c1ccccc1)N1CCN(C2CN(C(=O)c3ccc(-c4cccc(F)c4)cc3)C2)CC1 [Cpd 195, 1-{1-[(3′-Fluorobiphenyl-4-yl)carbonyl]azetidin-3-yl}-4-(phenylcarbonyl)piperazine]
15 | 230 | O=C(c1ccccc1)N1CCN(C2CN(C(=O)c3ccc(Cc4ccccc4)s3)C2)CC1 [Cpd 321, 1-{1-[(5-Benzylthiophen-2-yl)carbonyl]azetidin-3-yl}-4-(phenylcarbonyl)piperazine]
16 | 193 | O=C(c1ccccc1)N1CCN(C2CN(C(=O)c3ccc(-c4ccc(C(F)(F)F)cc4)cc3)C2)CC1 [Cpd 75, 1-(Phenylcarbonyl)-4-(1-{[4′-(trifluoromethyl)biphenyl-4-yl]carbonyl}azetidin-3-yl)piperazine]
17 | 483 | Cc1c(C(=O)N2CC(N3CCN(C(=O)c4ccccc4)CC3)C2)sc2ccc(Cl)cc12 [Cpd 120, 1-{1-[(5-Chloro-3-methyl-1-benzothiophen-2-yl)carbonyl]azetidin-3-yl}-4-(phenylcarbonyl)piperazine]
18 | 737 | CC(C)(C)OC(=O)N1CC[C@H](Oc2ccc(C(=O)N3CC(N4CCN(C(=O)c5ccccc5)CC4)C3)cc2)C1 [Cpd 434, tert-Butyl (3S)-3-[4-({3-[4-(phenylcarbonyl)piperazin-1-yl]azetidin-1-yl}carbonyl)phenoxy]pyrrolidine-1-carboxylate]
19 | 688 | O=C(c1ccccc1)N1CCN(C2CN(C(=O)c3ccc4c(ccn4-c4ccccc4)c3)C2)CC1 [Cpd 128, 1-Phenyl-5-({3-[4-(phenylcarbonyl)piperazin-1-yl]azetidin-1-yl}carbonyl)-1H-indole]
20 | 521 | O=C(c1ccccc1)N1CCN(C2CN(C(=O)c3ccc(-c4cccc(C(F)(F)F)c4)cc3)C2)CC1 [Cpd 186, 1-(Phenylcarbonyl)-4-(1-{[3′-(trifluoromethyl)biphenyl-4-yl]carbonyl}azetidin-3-yl)piperazine]
21 | 396 | CC(C)(C)OC(=O)N1CCc2cc(C(=O)N3CC(N4CCN(C(=O)c5ccccc5)CC4)C3)ccc2C1 [Cpd 319, tert-Butyl 6-({3-[4-(phenylcarbonyl)piperazin-1-yl]azetidin-1-yl}carbonyl)-3,4-dihydroisoquinoline-2(1H)-carboxylate]
22 | 498 | O=C(c1ccccc1)N1CCN(C2CN(C(=O)c3ccc4c(c3)CCN(C(=O)C3CCCCC3)C4)C2)CC1 [Cpd 350, 2-(Cyclohexylcarbonyl)-6-({3-[4-(phenylcarbonyl)piperazin-1-yl]azetidin-1-yl}carbonyl)-1,2,3,4-tetrahydroisoquinoline]
23 | 198 | O=C(c1ccccc1)N1CCN(C2CN(C(=O)c3ccc(OC4CCCCC4)cc3)C2)CC1 [Cpd 435, 1-(1-{[4-(Cyclohexyloxy)phenyl]carbonyl}azetidin-3-yl)-4-(phenylcarbonyl)piperazine]

Second part, the compound before the results:

Row | Structure (SMILES) | 2-AG accumulation, % of vehicle control at 10 µM [%]
24 | O=C(c1cccc(-c2cccs2)c1)N1CC(N2CCN(C(=O)c3nccs3)CC2)C1 [Cpd 137, 1-(1,3-Thiazol-2-ylcarbonyl)-4-{1-[(3-thiophen-2-ylphenyl)carbonyl]azetidin-3-yl}piperazine] | 441
25 | O=C(c1ccc(-c2cccs2)cc1)N1CC(N2CCN(C(=O)c3nccs3)CC2)C1 [Cpd 138, 1-(1,3-Thiazol-2-ylcarbonyl)-4-{1-[(4-thiophen-2-ylphenyl)carbonyl]azetidin-3-yl}piperazine] | 661
26 | Cc1nc(-c2ccc(C(F)(F)F)cc2)sc1C(=O)N1CC(N2CCN(C(=O)c3nccs3)CC2)C1 [Cpd 136, 1-[1-({4-Methyl-2-[4-(trifluoromethyl)phenyl]-1,3-thiazol-5-yl}carbonyl)azetidin-3-yl]-4-(1,3-thiazol-2-ylcarbonyl)piperazine] | 612
27 | N#CCc1cccc(-c2ccc(C(=O)N3CC(N4CCN(C(=O)c5nccs5)CC4)C3)cc2)c1 [Cpd 207, [4′-({3-[4-(1,3-Thiazol-2-ylcarbonyl)piperazin-1-yl]azetidin-1-yl}carbonyl)biphenyl-3-yl]acetonitrile] | 402
28 | COc1ccc(-c2ccc(C(=O)N3CC(N4CCN(C(=O)c5nccs5)CC4)C3)cc2)cc1C=O [Cpd 216, 4-Methoxy-4′-({3-[4-(1,3-thiazol-2-ylcarbonyl)piperazin-1-yl]azetidin-1-yl}carbonyl)biphenyl-3-carbaldehyde] | 625
29 | O=C(c1ccc(-c2ccc(O)cc2)cc1)N1CC(N2CCN(C(=O)c3nccs3)CC2)C1 [Cpd 211, 4′-({3-[4-(1,3-Thiazol-2-ylcarbonyl)piperazin-1-yl]azetidin-1-yl}carbonyl)biphenyl-4-ol] | 725
30 | O=C(c1ccc(-c2cccc3ncccc23)cc1)N1CC(N2CCN(C(=O)c3nccs3)CC2)C1 [Cpd 184, 5-[4-({3-[4-(1,3-Thiazol-2-ylcarbonyl)piperazin-1-yl]azetidin-1-yl}carbonyl)phenyl]quinoline] | 956
31 | O=C(CCc1ccccc1Cl)N1CC(N2CCN(C(=O)c3nccs3)CC2)C1 [Cpd 273, 1-{1-[3-(2-Chlorophenyl)propanoyl]azetidin-3-yl}-4-(1,3-thiazol-2-ylcarbonyl)piperazine] | 623
32 | CN(C)S(=O)(=O)c1ccc(-c2ccc(C(=O)N3CC(N4CCN(C(=O)c5nccs5)CC4)C3)cc2)cc1 [Cpd 213, N,N-Dimethyl-4′-({3-[4-(1,3-thiazol-2-ylcarbonyl)piperazin-1-yl]azetidin-1-yl}carbonyl)biphenyl-4-sulfonamide] | 104
33 | Nc1cccc(-c2ccc(C(=O)N3CC(N4CCN(C(=O)c5nccs5)CC4)C3)cc2)c1 [Cpd 230, 4′-({3-[4-(1,3-Thiazol-2-ylcarbonyl)piperazin-1-yl]azetidin-1-yl}carbonyl)biphenyl-3-amine] | 567
34 | O=C(c1ccc2c(Br)cccc2c1)N1CC(N2CCN(C(=O)c3nccs3)CC2)C1 [Cpd 313, 1-{1-[(5-Bromonaphthalen-2-yl)carbonyl]azetidin-3-yl}-4-(1,3-thiazol-2-ylcarbonyl)piperazine] | 814
35 | O=C(/C=C/c1ccc(SC(F)(F)F)cc1)N1CC(N2CCN(C(=O)c3nccs3)CC2)C1 [Cpd 283] | 605
36 | Cc1ccc(-c2nc(C)c(C(=O)N3CC(N4CCN(C(=O)c5nccs5)CC4)C3)s2)cc1 [Cpd 135, 1-(1-{[4-Methyl-2-(4-methylphenyl)-1,3-thiazol-5-yl]carbonyl}azetidin-3-yl)-4-(1,3-thiazol-2-ylcarbonyl)piperazine] | 592
